Test system: central benzodiazepine receptors
Test: Central benzodiazepine receptor binding (test of Speth et al.)
Settings: 1000 nM of the compound
Description: Compounds of the invention were assessed for their binding to the benzodiazepine receptor by the test of Speth et al. [Life Sci. 24, 351 (1979)] for central benzodiazepine receptors and LeFur et al. [Life Sci. 33, 449 (1983)] for peripheral receptors. The compounds were tested first at 1.0E-09, 1.0E-07 and 1.0E-05 M in single determination. […] The specific ligand binding to the receptor is defined as the difference between the total binding and the nonspecific binding determined in the presence of an excess of unlabelled ligand. In each experiment, the respective reference compound was tested concurrently with the test compounds in order to assess the assay suitability. It was tested at several concentrations (for IC50 value determination), and the data were compared with historical values. The assay was rendered valid if suitability criteria were met.
BZD central binding data for the compounds is provided in Table 3, wherein is provided the percent inhibition of central BZD in the presence of 1000 nM of the compound.

| Structure (SMILES) | % Inhibition at 1000 nM for CBZD |
| --- | --- |
| O=c1ccccn1Cc1c(-c2ccc(Cl)cc2)nc2ccc(F)cn12 [Compound 122, 1-((2-(4-chlorophenyl)-6-fluoroimidazo[1,2-a]pyridin-3-yl)methyl)pyridin-2(1H)-one] | ++ (percentage of inhibition of central BZD site binding is greater than 80% in the presence of 1000 nM of the compound) |
| c1ccc(-c2nc3ccccn3c2Cn2nccn2)cc1 [Compound 51, 3-((2H-1,2,3-triazol-2-yl)methyl)-2-phenylH-imidazo[1,2-a]pyridine] | ++ (percentage of inhibition of central BZD site binding is greater than 80% in the presence of 1000 nM of the compound) |
| CN(C)CCNc1cncc(Cc2c(-c3ccc(Cl)cc3)nc3ccccn23)n1 [Compound 190, N1-(6-((2-(4-chlorophenyl)imidazo[1,2-a]pyridin-3-yl)methyl)pyrazin-2-yl)-N2,N2-dimethylethane-1,2-diamine] | ++ (percentage of inhibition of central BZD site binding is greater than 80% in the presence of 1000 nM of the compound) |
| CC(C)c1nnc(Cc2c(-c3ccc(Cl)cc3)nc3ccccn23)[nH]1 [Compound 231, 2-(4-chlorophenyl)-3-((5-isopropyl-4H-1,2,4-triazol-3-yl)methyl)imidazo[1,2-a]pyridine] | ++ (percentage of inhibition of central BZD site binding is greater than 80% in the presence of 1000 nM of the compound) |
| COC(=O)c1ncnn1Cc1c(-c2ccc(Cl)cc2)nc2ccccn12 [Compound 24, 2-[2-(4-Chloro-phenyl)-imidazo[1,2-a]pyridin-3-ylmethyl]-2H-[1,2,4]triazole-3-carboxylic acid methyl ester] | ++ (percentage of inhibition of central BZD site binding is greater than 80% in the presence of 1000 nM of the compound) |
| CN(C)C(=O)c1ncnn1Cc1c(-c2ccc(Cl)cc2)nc2ccccn12 [Compound 74, 1-((2-(4-chlorophenyl)imidazo[1,2-a]pyridin-3-yl)methyl)-N,N-dimethyl-1H-1,2,4-triazole-5-carboxamide] | ++ (percentage of inhibition of central BZD site binding is greater than 80% in the presence of 1000 nM of the compound) |
| Cc1ccc2nc(-c3ccc(F)cc3)c(CNc3nc(F)cc(F)n3)n2c1 [Compound 166, 4,6-difluoro-N-((2-(4-fluorophenyl)-6-methylimidazo[1,2-a]pyridin-3-yl)methyl)pyrimidin-2-amine] | ++ (percentage of inhibition of central BZD site binding is greater than 80% in the presence of 1000 nM of the compound) |
| NC(=O)c1nccn1Cc1c(-c2ccc(Cl)cc2)nc2cccnn12 [Compound 87, 1-((2-(4-chlorophenyl)imidazo[1,2-b]pyridazin-3-yl)methyl)-1H-imidazole-2-carboxamide] | + (percentage of inhibition of central BZD site binding is greater than 50% but less than 80% in the presence of 1000 nM of the compound) |
| CN1CCN(c2cc(Cc3c(-c4ccc(Cl)cc4)nc4ccccn34)ncn2)CC1 [Compound 244, 2-(4-chlorophenyl)-3-((6-(4-methylpiperazin-1-yl)pyrimidin-4-yl)methyl)imidazo[1,2-a]pyridine] | ++ (percentage of inhibition of central BZD site binding is greater than 80% in the presence of 1000 nM of the compound) |
| CNCCOc1nccc(NCc2c(-c3ccc(Cl)cc3)nc3ccccn23)n1 [Compound 185, N-((2-(4-chlorophenyl)imidazo[1,2-a]pyridin-3-yl)methyl)-2-(2-(methylamino)ethoxy)pyrimidin-4-amine] | ++ (percentage of inhibition of central BZD site binding is greater than 80% in the presence of 1000 nM of the compound) |
| Cc1ccc(-c2nc3ccc(C)cn3c2Cn2cnc(Cl)c2Cl)cc1 [Compound 3, 3-((4,5-Dichloro-1H-imidazol-1-yl)methyl)-6-methyl-2-p-tolylH-imidazo[1,2-a]pyridine] | + (percentage of inhibition of central BZD site binding is greater than 50% but less than 80% in the presence of 1000 nM of the compound) |
| CC(C)c1nnc(Cc2c(-c3ccccc3)nc3ccc(Cl)cn23)[nH]1 [Compound 232, 6-chloro-3-((5-isopropyl-4H-1,2,4-triazol-3-yl)methyl)-2-phenylimidazo[1,2-a]pyridine] | ++ (percentage of inhibition of central BZD site binding is greater than 80% in the presence of 1000 nM of the compound) |
| NC(=O)c1ncnn1Cc1c(-c2ccc(Cl)cc2)nc2cccnn12 [Compound 89, 1-((2-(4-chlorophenyl)imidazo[1,2-b]pyridazin-3-yl)methyl)-1H-1,2,4-triazole-5-carboxamide] | ++ (percentage of inhibition of central BZD site binding is greater than 80% in the presence of 1000 nM of the compound) |
| Cn1ccnc1Cc1c(-c2ccc(F)cc2)nc2ccc(F)cn12 [Compound 199, 6-fluoro-2-(4-fluorophenyl)-3-((1-methyl-1H-imidazol-2-yl)methyl)imidazo[1,2-a]pyridine] | ++ (percentage of inhibition of central BZD site binding is greater than 80% in the presence of 1000 nM of the compound) |
| Cc1ccc(-c2nc3ccc(C)cn3c2Cn2ncnc2C(=O)N(C)C)cc1 [Compound 70, 2-(6-Methyl-2-p-tolyl-imidazo[1,2-a]pyridin-3-ylmethyl)-2H-[1,2,4]triazole-3-carboxylic acid dimethylamide] | + (percentage of inhibition of central BZD site binding is greater than 50% but less than 80% in the presence of 1000 nM of the compound) |
| CNC(=O)c1cc(C)nn1Cc1c(-c2ccc(Cl)cc2)nc2ccccn12 [Compound 79, 1-((2-(4-chlorophenyl)imidazo[1,2-a]pyridin-3-yl)methyl)-N,3-dimethyl-1H-pyrazole-5-carboxamide] | + (percentage of inhibition of central BZD site binding is greater than 50% but less than 80% in the presence of 1000 nM of the compound) |
| CNC(=O)c1ncnn1Cc1c(-c2ccc(C)cc2)nc2ccc(C)cn12 [Compound 68, 2-(6-Methyl-2-p-tolyl-imidazo[1,2-a]pyridin-3-ylmethyl)-2H-[1,2,4]triazole-3-carboxylic acid methylamide] | ++ (percentage of inhibition of central BZD site binding is greater than 80% in the presence of 1000 nM of the compound) |
| Cc1ccc(-c2nc3ccc(C)cn3c2CSc2nncn2C)cc1 [Compound 176, 3-((4-methyl-4H-1,2,4-triazol-3-ylthio)methyl)-6-methyl-2-p-tolylH-imidazo[1,2-a]pyridine] | ++ (percentage of inhibition of central BZD site binding is greater than 80% in the presence of 1000 nM of the compound) |
| Cc1ccc(-c2nc3ccc(C)cn3c2Cn2ccnc2)cc1 [Compound 1, 3-((1H-imidazol-1-yl)methyl)-6-methyl-2-p-tolylimidazo[1,2-a]pyridine] | ++ (percentage of inhibition of central BZD site binding is greater than 80% in the presence of 1000 nM of the compound) |
| Cc1ccc(-c2nc3ccc(C)cn3c2Cn2ccnc2-c2ccccc2)cc1 [Compound 13, 6-Methyl-3-((2-phenyl-1H-imidazol-1-yl)methyl)-2-p-tolylH-imidazo[1,2-a]pyridine] | + (percentage of inhibition of central BZD site binding is greater than 50% but less than 80% in the presence of 1000 nM of the compound) |
| COC(=O)c1cn(Cc2c(-c3ccc(Cl)cc3)nc3ccccn23)c2ccccc12 [Compound 38, Methyl 1-((2-(4-chlorophenyl)imidazo[1,2-a]pyridin-3-yl)methyl)-1H-indole-3-carboxylate] | ++ (percentage of inhibition of central BZD site binding is greater than 80% in the presence of 1000 nM of the compound) |
| Cc1ccc(-c2nc3ccc(C)cn3c2Cn2c(C)c(C)sc2=S)cc1 [Compound 130, 4,5-Dimethyl-3-(6-methyl-2-p-tolyl-imidazo[1,2-a]pyridin-3-ylmethyl)-3H-thiazole-2-thione] | ++ (percentage of inhibition of central BZD site binding is greater than 80% in the presence of 1000 nM of the compound) |
| COC(=O)c1ncn(Cc2c(-c3ccc(C)cc3)nc3ccc(C)cn23)n1 [Compound 11, 1-(6-Methyl-2-p-tolyl-imidazo[1,2-a]pyridin-3-ylmethyl)-1H-[1,2,4]triazole-3-carboxylic acid methyl ester] | ++ (percentage of inhibition of central BZD site binding is greater than 80% in the presence of 1000 nM of the compound) |
| c1ccc(-c2nc3ccccn3c2Cn2ccnn2)cc1 [Compound 50, 3-((1H-1,2,3-triazol-1-yl)methyl)-2-phenylH-imidazo[1,2-a]pyridine] | + (percentage of inhibition of central BZD site binding is greater than 50% but less than 80% in the presence of 1000 nM of the compound) |
| Fc1cc(F)nc(NCc2c(-c3ccc(Cl)cc3)nc3ccccn23)n1 [Compound 167, N-((2-(4-chlorophenyl)imidazo[1,2-a]pyridin-3-yl)methyl)-4,6-difluoropyrimidin-2-amine] | ++ (percentage of inhibition of central BZD site binding is greater than 80% in the presence of 1000 nM of the compound) |
| COC(=O)C1Cc2ccccc2N1Cc1c(-c2ccc(Cl)cc2)nc2ccccn12 (centres unmarked) [Compound 35, Methyl 1-((2-(4-chlorophenyl)imidazo[1,2-a]pyridin-3-yl)methyl)indoline-2-carboxylate] | + (percentage of inhibition of central BZD site binding is greater than 50% but less than 80% in the presence of 1000 nM of the compound) |

Source: patent US8497278B2, “Imidazo[1,2-a]pyridine compounds” (priority 2008, dated 2013)
